Activity calls are given as the source filed them.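 How the source made its calls: active means at least one rat sex group has a carcinogenic potency value and tumor site recorded; inconclusive means only rat studies were judged inadequate by the national testing program; inactive means no potency or tumor site, with negative rat experiments.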
Tested on: rat chronic carcinogenicity bioassay, TD50
Test: DSSTox (CPDBAS) Carcinogenic Potency Database Summary Rat Bioassay Results
Details: for Potency: hits give low values; for outcome: TD50_Rat_Note: no positive results
Method in brief: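 Chronic long-term rat cancer bioassays from literature and NCI/NTP, taking the most positive result per sex. TD50 in mmol converted to a 1–100 Activity Score from log10(1/TD50). Mixtures lacking TD50 scored 50.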

[1] = TargetSites_Rat_BothSexes: no positive results
[2] = TargetSites_Rat_Female: no positive results
[3] = TargetSites_Rat_BothSexes: all tumor bearing animals
[4] = TD50_Rat_Note: TD50 is harmonic mean of more than one positive test, TargetSites_Rat_Female: urinary bladder

c1ccc(N=Nc2ccccc2)cc1
Potency (TD50_Rat_Note: TD50 is harmonic mean of more than one positive test, TargetSites_Rat_Female: spleen): 24.1 mg/kg/day

CCCCN(CCCCO)N=O
Potency (TD50_Rat_Note: TD50 is harmonic mean of more than one positive test, harmonic mean of TD50 includes a value for upper 99% confidence li, TargetSites_Rat_Female: urinary bladder): 0.457 mg/kg/day

CCN(Cc1cccc(S(=O)(=O)O)c1)c1ccc(C(=C2C=CC(=[N+](CC)Cc3cccc(S(=O)(=O)O)c3)C=C2)c2ccccc2S(=O)(=O)[O-])cc1
outcome [1]: inactive

CCN(CC)C(C)=O
Potency (TD50_Rat_Note: no positive results are statistically significant): 8.85 mg/kg/day

CC(O)CN(C)N=O (stereo not given)
Potency (TD50_Rat_Note: TD50 is harmonic mean of more than one positive test, TargetSites_Rat_Female: esophagus, nasal cavity): 0.0463 mg/kg/day

O=[N+]([O-])c1cc([As](=O)(O)O)ccc1O
outcome [2]: inactive; no positive results

CC(=O)OC/C=C(C)/C=C/C=C(C)/C=C/C1=C(C)CCCC1(C)C
Potency (TD50_Rat_Note: TD50 is harmonic mean of more than one positive test, TargetSites_Rat_Female: adrenal gland): 125 mg/kg/day

S=C([S-])NCCNC(=S)[S-].[Mn+2]
Potency [3]: 157 mg/kg/day

C=CC#N
Potency (TD50_Rat_Note: TD50 is harmonic mean of more than one positive test, greater than ten-fold variation among TD50 values for positive res, TargetSites_Rat_Female: ear Zymbals gland, mammary gland, nasal cavity, nervous system, oral cavity, small intestine, stomach): 16.9 mg/kg/day

CN(CCCC(O)c1cccnc1)N=O (stereo not given)
Potency: 0.103 mg/kg/day

Nc1ccc(N)c2c1C(=O)c1c(N)ccc(N)c1C2=O
Potency [4]: 156 mg/kg/day

O=P(=O)O
outcome [2]: inactive; no positive results

Nc1ccc(-c2ccc(N)c(N)c2)cc1N
Potency: 395 mg/kg/day

CC(=O)C(N=Nc1ccc(Cl)cc1Cl)C(=O)Nc1ccc(-c2ccc(NC(=O)C(N=Nc3ccc(Cl)cc3Cl)C(C)=O)c(C)c2)cc1C (stereo not given)
outcome [1]: inactive

CCN=[N+](C)[O-]
Potency: 11.5 mg/kg/day

CCOC(=O)CC(SP(=O)(OC)OC)C(=O)OCC (stereo not given)
outcome [2]: inactive; no positive results

CC(C)[N+](=O)[O-]
outcome [2]: inactive; no positive results

Nc1ccc(-c2ccccc2)cc1O
outcome [2]: inactive

C=CCO
outcome [2]: inactive; no positive results

CC(CN1CC(=O)NC(=O)C1)N1CC(=O)NC(=O)C1 (stereo not given)
Potency (TD50_Rat_Note: positive test results only by intraperitoneal or intravenous injection, TargetSites_Rat_Female: uterus): 10.7 mg/kg/day

NNc1nc(-c2ccc(N)cc2)cs1
Potency (TargetSites_Rat_Female: hematopoietic system, mammary gland): 1.03 mg/kg/day

COc1ccc(O)cc1
Potency (TD50_Rat_Note: TD50 is harmonic mean of more than one positive test, TargetSites_Rat_Female: stomach): 658 mg/kg/day

CN(C)c1ccc(Cc2ccc(N(C)C)cc2)cc1
Potency (TD50_Rat_Note: TD50 is harmonic mean of more than one positive test, TargetSites_Rat_Female: thyroid gland): 16.4 mg/kg/day

COP(=S)(OC)Oc1ccc(SC)c(C)c1
outcome [2]: inactive; no positive results

CC1CN(N=O)C(=O)NC1=O (stereo not given)
outcome [2]: inactive; no positive results

CCCCCCOc1cc(C)c(O)c(C)c1C
outcome [2]: inactive

O=S1(=O)CCCO1
Potency (TD50_Rat_Note: TD50 is harmonic mean of more than one positive test, TargetSites_Rat_Female: hematopoietic system, mammary gland, nervous system, small intestine): 3.84 mg/kg/day

CC(C(O)c1ccccc1)N(C)N=O (stereo not given)
Potency: 95.2 mg/kg/day

O=C(O)O
Potency [4]: 13000 mg/kg/day | outcome: inactive; no positive results

Clc1ccc(-c2cccc(Cl)c2Cl)c(Cl)c1
Potency (TD50_Rat_Note: TD50 is harmonic mean of more than one positive test, TD50_Rat_mmol was not calculated for this mixture, but Activiity S, TargetSites_Rat_Female: liver): 11.8 mg/kg/day

IC(I)I
outcome [2]: inactive; no positive results

CCC1(c2ccccc2)C(=O)NCNC1=O
outcome [2]: inactive; no positive results

CCCCCCCCCCCN(C)N=O
Potency: 2.37 mg/kg/day

Oc1cccc2cccnc12
outcome [2]: inactive; no positive results

COc1cc(O)c2c(=O)c3c(OC)cc4c(c3oc2c1OC)C1C=COC1O4 (stereo not given)
Potency (TD50_Rat_Note: TD50 value is overestimated as upper 99% confidence limit from study with 100% tumor incidence but no lifetable, harmoni): 0.364 mg/kg/day

CC1=C(CC(=O)O)c2cc(F)ccc2/C1=C\c1ccc(S(C)(=O)=O)cc1
outcome: inactive; no positive results

CC(O)CN(CC(O)CO)N=O (stereo not given)
Potency (TargetSites_Rat_Female: esophagus, oral cavity, stomach): 0.0535 mg/kg/day

Nc1ccc(O)c([N+](=O)[O-])c1
Potency [2]: 309 mg/kg/day

CC(C)CON=O
Potency (TD50_Rat_Note: TD50 is harmonic mean of more than one positive test, TargetSites_Rat_Female: lung): 54.1 mg/kg/day

Nc1ccccc1C(=O)O
outcome [2]: inactive; no positive results

c1ccc2c(c1)[nH]c1cnccc12
outcome: inactive; no positive results

CC1CN(N=O)CC(C)N1C (stereo not given)
Potency (TargetSites_Rat_Female: nasal cavity): 0.151 mg/kg/day

O=S(=O)(O)NC1CCCCC1
outcome [1]: inactive

CCOC(=O)N(CC)N=O
Potency (TD50_Rat_Note: TD50 is harmonic mean of more than one positive test, TargetSites_Rat_Female: esophagus, oral cavity, small intestine, stomach): 0.0904 mg/kg/day

C=CCN(CC(C)=O)N=O
Potency (TargetSites_Rat_Female: esophagus, liver): 0.335 mg/kg/day

Cc1ccc(N=Nc2c(O)c(S(=O)(=O)O)cc3ccc(S(=O)(=O)O)cc23)c(C)c1
Potency (TD50_Rat_Note: TD50 value less than the reported upper confidence limit, TD50 is harmonic mean of more than one positive test, harmonic, TargetSites_Rat_Female: liver): 415 mg/kg/day

CCCCCCCCCCCCCCCC(=O)OC/C=C(C)/C=C/C=C(C)/C=C/C1=C(C)CCCC1(C)C
outcome: inactive; no positive results

O.O.O.O.O.O.O.O=S(=O)([O-])[O-].[Co+2]
Potency (TD50_Rat_Note: TD50 is harmonic mean of more than one positive test, TargetSites_Rat_Female: adrenal gland, lung): 0.137 mg/kg/day

CCn1cc(C(=O)O)c(=O)c2cc3c(cc21)OCO3
Potency [2]: 167 mg/kg/day

CCCC(CCC)C(=O)O
Potency (TargetSites_Rat_Female: uterus): 1300 mg/kg/day

CCNc1nc(Cl)nc(NC(C)C)n1
Potency (TD50_Rat_Note: TD50 is harmonic mean of more than one positive test, TargetSites_Rat_Female: hematopoietic system, mammary gland, uterus): 36.6 mg/kg/day

CNC(=O)c1c(N(C)N=O)ncn1C
Potency (TargetSites_Rat_BothSexes: nasal cavity): 1 mg/kg/day

CCN(CC)C(=O)Nc1ccc(OCC(O)CNC(C)(C)C)c(C(C)=O)c1 (stereo not given)
outcome [2]: inactive; no positive results

OC(O)C(Cl)(Cl)Cl
outcome: inactive; no positive results

COc1ccc(N)cc1
outcome [2]: inactive; no positive results

O=CNNc1nc(-c2ccco2)cs1
outcome [2]: inactive

Nc1ccc(Sc2ccc(N)cc2)cc1
Potency (TD50_Rat_Note: TD50 is harmonic mean of more than one positive test, TargetSites_Rat_Female: ear Zymbals gland, thyroid gland, uterus): 3.71 mg/kg/day

N[C@@H](Cc1cnc[nH]1)C(=O)O
outcome [2]: inactive; no positive results

ClC1=C(Cl)C2(Cl)C3C(Cl)C=CC3C1(Cl)C2(Cl)Cl (stereo not given)
outcome [2]: inactive; no positive results

CC[C@]1(O)CC2CN(CCc3c([nH]c4ccccc34)[C@@](C(=O)OC)(c3cc4c(cc3OC)N(C)[C@H]3[C@@](O)(C(=O)OC)[C@H](OC(C)=O)[C@]5(CC)C=CCN6CC[C@]43[C@@H]65)C2)C1 (stereo not given in full)
outcome: inactive; no positive results

CC(C)(CO)CCCCCCC(C)(C)CO
outcome [2]: inactive; no positive results

C=CN1CCCC1=O
Potency (TD50_Rat_Note: TD50 is harmonic mean of more than one positive test, TargetSites_Rat_Female: liver, nasal cavity, oral cavity): 12 mg/kg/day

CC(C)(C)NCC(O)c1cc(O)cc(O)c1 (stereo not given)
Potency (TargetSites_Rat_Female: mesovarium): 410 mg/kg/day

O=C1C=C(N2CC2)C(=O)C(N2CC2)=C1N1CC1
Potency (TD50_Rat_Note: positive test results only by intraperitoneal or intravenous injection): 0.00504 mg/kg/day

O=C1CCc2ccccc2O1
Potency [2]: 2970 mg/kg/day

Cc1cc(C)c(S(=O)(=O)O)cc1N=Nc1cc(S(=O)(=O)O)c2ccccc2c1O
Potency (TD50_Rat_Note: TD50 is harmonic mean of more than one positive test, TargetSites_Rat_BothSexes: hematopoietic system): 8110 mg/kg/day

Clc1ccc(Cl)cc1
Potency [2]: 644 mg/kg/day

Cc1cc(C(C)(C)C)c(O)c(C(C)(C)C)c1
outcome [2]: inactive; no positive results

C/C(=C(\CCOC(=O)c1ccccc1)SC(=O)c1ccccc1)N(C=O)Cc1cnc(C)nc1N
outcome [2]: inactive; no positive results

CCC[CH2][Sn]([CH2]CCC)([O]C(C)=O)[O]C(C)=O
outcome (TargetSites_Rat_Female: NTP bioassay inadequate): inactive; no positive results

COC(=O)C(c1ccccc1)C1CCCCN1 (stereo not given)
outcome [2]: inactive; no positive results

CN(C)CCN(Cc1cccs1)c1ccccc1
outcome [2]: inactive; no positive results

C[C@@H]1Cc2c(Cl)cc(C(=O)N[C@@H](Cc3ccccc3)C(=O)O)c(O)c2C(=O)O1
Potency (TD50_Rat_Note: TD50 is harmonic mean of more than one positive test, TargetSites_Rat_Female: kidney, mammary gland): 0.136 mg/kg/day

CN1[C@@H]2CC(OC(=O)[C@@H](CO)c3ccccc3)C[C@H]1[C@@H]1O[C@@H]12 (stereo not given in full)
outcome [2]: inactive; no positive results

O=c1oc2c(O)c(O)cc3c(=O)oc4c(O)c(O)cc1c4c23
outcome [2]: inactive

Cc1cc(Cl)ccc1OCC(=O)O
outcome [2]: inactive; no positive results

CCN(Cc1cccc(S(=O)(=O)O)c1)c1ccc(C(=C2C=CC(=[N+](CC)Cc3cccc(S(=O)(=O)[O-])c3)C=C2)c2ccccc2)cc1
Potency (TD50_Rat_Note: TD50 is harmonic mean of more than one positive test, TargetSites_Rat_Female: liver, TargetSites_Rat_BothSexes: hematopoietic system): 6060 mg/kg/day

O=S(=O)(O)c1cc(S(=O)(=O)O)c2c(N=Nc3ccccc3)c(O)ccc2c1
outcome [2]: inactive; no positive results

NC(=O)N/N=C/c1ccco1
outcome [2]: inactive

CCOP(=S)(OCC)Oc1ccc([N+](=O)[O-])cc1
outcome [2]: inactive; no positive results

O=NN1CC=CCO1
Potency [3]: 90.6 mg/kg/day

O=[N+]([O-])OCC(CO[N+](=O)[O-])O[N+](=O)[O-]
Potency (TD50_Rat_Note: TD50 is harmonic mean of more than one positive test, TargetSites_Rat_Female: liver): 183 mg/kg/day

Nc1ccc(-c2ccc(N)c(Cl)c2)cc1Cl
Potency (TD50_Rat_Note: TD50 is harmonic mean of more than one positive test, TargetSites_Rat_Female: mammary gland): 28.1 mg/kg/day

C[C@@H]1O[C@@]2(CS1)CN1CCC2CC1
outcome [2]: inactive; no positive results
